One experiment has as its system U937 cells. Description: Counter screen: cell viability without the TSQ cocktail (off-target effect). On the set-up: species or system human. Conditions: Homo sapiens, U-937, Table 26, read-out: Off-target effect (IC50 cell-based assay). As for the experimental part:
(§1) • Cell Line ID: U937 human histiocytic leukemia cell line. • Cell Concentration (cells/well): Final cell density is 20000 cells per well. • Cell growth medium: HT-RPMI medium+7.4% Fetal Bovine Serum (FBS). Cells are cultured in Corning 150 cm^2 tissue culture flasks with vented caps at 37° C./5% CO2. • Incubation: Plates were incubated at 37° C./5% CO2 in a humidified incubator for 48 hours following addition of compounds and death stimuli (TSQ cocktail). • Compound concentration: 36 μM starting concentration, 1:3 dilution, 10 point • DMSO final concentration (% v/v): 0.3%. Compounds in TSQ Cocktail (T: TNF; S: Smac Mimetic; Q: Q-VD-OPh) and their Final Concentrations: • hTNF-Fc (100 ng/ml)—produced by standard procedures as shown in Bossen et al., J. Biol. Chem., 2006, 281(20), 13964-13971. • Compound A (500 nM)—Smac mimetic, Tetralogic and SYNthesis med chem • Q-VD-OPh (10 μM)—MP Biomedicals
(§2) The cellular assay was carried out according to the following steps: • 1. Each well was prepared by sequential addition of: • a. DMSO (control; columns 1-2 and 23-24) or compound in DMSO—addition was performed using acoustic transfer of nL volumes of stock compound to give final test concentrations of 36, 12, 4, 1.3, 0.44, 0.148, 0.049, 0.016, 0.005 and 0.002 μM. All wells were backfilled with DMSO to a final total volume in the well of 100 nL. • b. Following compound/DMSO addition in step (a), 40 μL of cell suspension (5×10^5 cells/mL) was added to provide a final cell concentration of 20,000 cells per well, and • c. Following cell addition in step (b), 10 μL of 5×TSQ cocktail (except to positive controls; columns 1 and 23) was added to each well. • 2. After 48 hours, plate was removed from the 37° C. incubator and equilibrated to room temperature for 45 minutes. • 3.15 μL of room temperature CellTitre-Glo2™ (Promega™) was added to each well. • 4. Shook plates for 2 minutes (˜600 rpm) and incubated at room temperature for 15 minutes to allow signal to stabilise. • 5. Read luminescence readout on a plate reader.
(§3) • Assay involving the TSQ cocktail (T: TNF; S: Smac mimetic; Q: Q-VD-OPh): TSQ treatment ensures that cells specifically undergo necroptotic cell death. TNF activates the TNF receptor, Smac mimetic directs the signal away from proinflammatory signaling and toward the RIPK1/RIPK3-mediated cell death pathways, and Q-VD-OPh ensures that the apoptotic response is blocked leaving only the programmed necrosis response. The compounds' activity (solution in DMSO) tested in this TSQ-induced assay was evaluated by determining the number of viable cells in culture by measuring the amount of ATP present as measured by CelltiterGlo. • Counter screen: In parallel, all compounds were tested for their ability to affect cell viability. The same U937 cells were treated with compound in DMSO without the TSQ cocktail. This counter screen enabled evaluation of off-target effects. In this case, cell viability was measured by CelltiterGlo.
(In general: A counterscreen serves to expose hits that act by an unwanted route or on another target.)

A further experiment has as its target endogenous MLKL in U937 (Homo sapiens (Human), UniProt Q8NB16). Put plainly: Degradation assay: endogenous MLKL in U937 (western blot). Conditions: U937, 24 h incubation, read-out: Degradation of endogenous MLKL in U937 (DC50 cell-based assay). A digest of the protocol:
(§4)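 Western blot band intensity of MLKL, adjusted to GAPDH loading and normalized to DMSO-only wells, gave percent degradation. Compound exposure lasted 24 h at final concentrations of 10–0.016 μM in 1:5 steps, in mouse dermal fibroblasts or human U937 cells.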
A general note: In western blotting, separated proteins are transferred to a membrane and probed.

Experiment [1] relates to U937 human histiocytic leukemia cell line. Put plainly: Cellular assay: inhibition of TSQ induced necroptosis, CellTitre-Glo viability. As to conditions: Homo sapiens, U-937; U937 cells, 48 hours, TSQ cocktail, Table 26; read-out: Inhibition of TSQ-induced necroptosis (IC50 cell-based assay). As for the experimental part:
Cellular Assay: Screening Compounds for Inhibition of TSQ Induced Necroptosis, 384 Well Plate Format.
as §1, §2
Percent viability was calculated for each compound according to equation (2):
as §3

The target of another experiment is human MLKL (full length) (Homo sapiens (Human), UniProt Q8NB16). Put plainly: KINOMEscan binding assay, human MLKL (full length). Conditions: hMLKL, Table 25; read-out: MLKL (KD). A digest of the protocol: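 Binding constants were derived by fitting qPCR-quantified bead-retained kinase against compound concentration to the Hill equation, slope set at −1. Compound series were 3-fold over 11 points with 1% DMSO; most top concentrations were 30,000 nM. Kinases were T7-phage-tagged or HEK-293-produced with DNA tags.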

In a further experiment the target is endogenous MLKL in MDF (Mus musculus (Mouse), UniProt Q9D2Y4). Put plainly: Degradation assay: endogenous MLKL in MDF (western blot). As to conditions: MDF cells, 24 h incubation with compound, MLKL adjusted for loading with GAPDH, normalized to DMSO only control, read-out: Degradation of endogenous MLKL in MDF (DC50 cell-based assay). In short, it runs like this:
as §4

The structures appear in SMILES notation. Bounds are passed on as bounds.

Data on eight compounds can be found in US20250115598A1 (Anaxis Pharma Pty Ltd, priority 2021, published 2025).

By IC50 is commonly meant the point on the concentration scale where inhibition reaches its midpoint. As a reminder, the DC50 is the concentration giving 50% degradation. What is called Kd is the free concentration of one partner at which half of the binding sites on the other are occupied at equilibrium, for simple one-to-one binding.

Chain of endogenous MLKL in U937 (Q8NB16 whole entry): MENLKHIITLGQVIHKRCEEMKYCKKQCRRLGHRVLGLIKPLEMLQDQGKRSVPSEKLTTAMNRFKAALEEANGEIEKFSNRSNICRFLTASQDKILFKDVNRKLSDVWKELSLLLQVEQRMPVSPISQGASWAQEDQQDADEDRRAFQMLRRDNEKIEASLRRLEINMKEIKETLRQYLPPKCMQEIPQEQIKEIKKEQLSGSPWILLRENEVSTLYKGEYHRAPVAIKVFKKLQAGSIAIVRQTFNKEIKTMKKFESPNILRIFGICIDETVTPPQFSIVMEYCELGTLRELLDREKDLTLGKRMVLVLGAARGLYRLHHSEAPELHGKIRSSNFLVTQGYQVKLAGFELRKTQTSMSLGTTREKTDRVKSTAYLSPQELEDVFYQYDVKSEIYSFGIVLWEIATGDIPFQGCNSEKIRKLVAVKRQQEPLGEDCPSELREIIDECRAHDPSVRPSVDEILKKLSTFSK
Chain of human MLKL (full length) (Q8NB16 whole entry): as above
Chain of endogenous MLKL in MDF (Q9D2Y4 whole entry): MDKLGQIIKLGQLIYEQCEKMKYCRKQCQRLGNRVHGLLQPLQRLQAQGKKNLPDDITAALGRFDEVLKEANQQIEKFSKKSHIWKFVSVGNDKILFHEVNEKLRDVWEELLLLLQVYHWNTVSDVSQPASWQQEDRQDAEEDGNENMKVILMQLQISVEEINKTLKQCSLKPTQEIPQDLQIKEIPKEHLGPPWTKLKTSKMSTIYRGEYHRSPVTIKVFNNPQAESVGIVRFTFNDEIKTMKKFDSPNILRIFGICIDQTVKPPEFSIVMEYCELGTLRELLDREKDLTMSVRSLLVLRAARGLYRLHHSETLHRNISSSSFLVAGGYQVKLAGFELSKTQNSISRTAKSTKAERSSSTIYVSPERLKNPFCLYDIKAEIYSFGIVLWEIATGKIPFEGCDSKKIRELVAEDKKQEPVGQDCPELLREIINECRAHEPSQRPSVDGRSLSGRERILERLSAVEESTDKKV

In the case of `Cc1ncsc1-c1ccc(CNC(=O)[C@@H]2C[C@@H](O)CN2C(=O)[C@@H](NC(=O)CCN2CCC(n3cc(-c4cnc(N)c5c(-c6ccc(NS(=O)(=O)C(F)F)c(O[C@@H](C)c7ccc(F)cc7)c6)nn(C)c45)cn3)CC2)C(C)(C)C)cc1` [Compound 1017, (2S,4R)-1-[(2S)-2-{3-[4-(4-{4-amino-3-[4-(difluoromethanesulfonamido)-3-[(1S)-1-(4-fluorophenyl)ethoxy]phenyl]-1-methyl-1H-pyrazolo[4,3-c]pyridin-7-yl}-1H-pyrazol-1-yl)piperidin-1-yl]propanamido}-3,3-dimethylbutanoyl]-4-hydroxy-N-{[4-(4-methyl-1,3-thiazol-5-yl)phenyl]methyl}pyrrolidine-2-carboxamide], the values for the concentration for half-maximal inhibition (IC50) (in the experiment on U937 cells; in experiment [1]) were over 10 µM and 1 to 10 µM, respectively. Also, at endogenous MLKL in U937, the 50% degradation concentration (DC50) is 1 to 10 µM. Besides, at human MLKL (full length), the dissociation constant Kd was under 0.01 µM.

Turning to `Cc1ncsc1-c1ccc(CNC(=O)[C@@H]2C[C@@H](O)CN2C(=O)[C@@H](NC(=O)CN2CCC(n3cc(-c4cnc(N)c5c(-c6ccc(NS(=O)(=O)C(F)F)c(O[C@@H](C)c7ccc(F)cc7)c6)nn(C)c45)cn3)C2)C(C)(C)C)cc1` (stereo partly drawn) [Compound 1011, (2S,4R)-1-[(2S)-2-{2-[3-(4-{4-amino-3-[4-(difluoromethanesulfonamido)-3-[(1S)-1-(4-fluorophenyl)ethoxy]phenyl]-1-methyl-1H-pyrazolo[4,3-c]pyridin-7-yl}-1H-pyrazol-1-yl)pyrrolidin-1-yl]acetamido}-3,3-dimethylbutanoyl]-4-hydroxy-N-{[4-(4-methyl-1,3-thiazol-5-yl)phenyl]methyl}pyrrolidine-2-carboxamide], the IC50 is over 10 µM in the experiment with U937 cells and 1 to 10 µM in experiment [1]. Besides, at endogenous MLKL in U937, the half-maximal degradation concentration (DC50) fell in the range of 1 to 10 µM.

With `Cc1ncsc1-c1ccc(CNC(=O)[C@@H]2C[C@@H](O)CN2C(=O)[C@@H](NC(=O)CN2CCC(C#Cc3cnc(N)c4c(-c5ccc(NS(=O)(=O)C(F)F)c(O[C@@H](C)c6ccc(F)cc6)c5)nn(C)c34)CC2)C(C)(C)C)cc1` [Compound 1023, (2S,4R)-1-[(2S)-2-{2-[4-(2-{4-amino-3-[4-(difluoromethanesulfonamido)-3-[(1S)-1-(4-fluorophenyl)ethoxy]phenyl]-1-methyl-1H-pyrazolo[4,3-c]pyridin-7-yl}ethynyl)piperidin-1-yl]acetamido}-3,3-dimethylbutanoyl]-4-hydroxy-N-{[4-(4-methyl-1,3-thiazol-5-yl)phenyl]methyl} pyrrolidine-2-carboxamide], the half-maximal inhibitory concentration (IC50) is over 10 µM with U937 cells and under 1 µM in experiment [1]. Also, the DC50 on endogenous MLKL in MDF was in the range of 1 to 10 µM.

As to `Cc1ncsc1-c1ccc(CNC(=O)[C@@H]2C[C@@H](O)CN2C(=O)[C@@H](NC(=O)CCN2CC(n3cc(-c4cnc(N)c5c(-c6ccc(NS(=O)(=O)C(F)F)c(O[C@@H](C)c7ccc(F)cc7)c6)nn(C)c45)cn3)C2)C(C)(C)C)cc1` [Compound 1010, (2S,4R)-1-[(2S)-2-{3-[3-(4-{4-amino-3-[4-(difluoromethanesulfonamido)-3-[(1S)-1-(4-fluorophenyl)ethoxy]phenyl]-1-methyl-1H-pyrazolo[4,3-c]pyridin-7-yl}-1H-pyrazol-1-yl)azetidin-1-yl]propanamido}-3,3-dimethylbutanoyl]-4-hydroxy-N-{[4-(4-methyl-1,3-thiazol-5-yl)phenyl]methyl}pyrrolidine-2-carboxamide], the concentration for half-maximal inhibition (IC50) in the experiment with U937 cells was over 10 µM; in experiment [1], 1 to 10 µM. Also, the DC50 at endogenous MLKL in U937 lay within 1 to 10 µM. Also, the Kd at human MLKL (full length) was under 0.01 µM.

In the case of `CCS(=O)(=O)Nc1ccc(-c2n[nH]c3c(-c4cnn(CCOCCOCC(=O)N[C@H](C(=O)N5C[C@H](O)C[C@H]5C(=O)NCc5ccc(-c6scnc6C)cc5)C(C)(C)C)c4)cnc(N)c23)cc1OCc1ccc(F)cc1` [Compound 1005, (2S,4R)-1-[(2S)-2-[2-(2-{2-[4-(4-amino-3-{4-ethanesulfonamido-3-[(4-fluorophenyl)methoxy]phenyl}-1H-pyrazolo[4,3-c]pyridin-7-yl)-1H-pyrazol-1-yl]ethoxy}ethoxy)acetamido]-3,3-dimethylbutanoyl]-4-hydroxy-N-{[4-(4-methyl-1,3-thiazol-5-yl)phenyl]methyl}pyrrolidine-2-carboxamide], the values for the IC50 (in the experiment with U937 cells; in experiment [1]) were over 10 µM and 1 to 10 µM, respectively. In addition, the DC50 at endogenous MLKL in U937 is 1 to 10 µM. For the same compound, the equilibrium dissociation constant (Kd) at human MLKL (full length) was under 0.01 µM.

Take `CCS(=O)(=O)Nc1ccc(-c2n[nH]c3c(-c4cnn(CCCCCCC(=O)N[C@H](C(=O)N5C[C@H](O)C[C@H]5C(=O)NCc5ccc(-c6scnc6C)cc5)C(C)(C)C)c4)cnc(N)c23)cc1OCc1ccc(F)cc1` [Compound 1003, (2S,4R)-1-[(2S)-2-{7-[4-(4-amino-3-{4-ethanesulfonamido-3-[(4-fluorophenyl)methoxy]phenyl}-1H-pyrazolo[4,3-c]pyridin-7-yl)-1H-pyrazol-1-yl]heptanamido}-3,3-dimethylbutanoyl]-4-hydroxy-N-{[4-(4-methyl-1,3-thiazol-5-yl)phenyl]methyl}pyrrolidine-2-carboxamide]: the IC50 (in the experiment on U937 cells; in experiment [1]) was over 10 µM in each case. In addition, the DC50 on endogenous MLKL in U937 was 1 to 10 µM. Further, the dissociation constant Kd on human MLKL (full length) was under 0.01 µM.

For `Cc1ncsc1-c1ccc(CNC(=O)[C@@H]2C[C@@H](O)CN2C(=O)[C@@H](NC(=O)CCN2CCC(n3cc(-c4cnc(N)c5c(-c6ccc(NS(=O)(=O)C(F)F)c(O[C@@H](C)c7ccc(F)cc7)c6)nn(C)c45)cn3)C2)C(C)(C)C)cc1` (stereo partly drawn) [Compound 1012, (2S,4R)-1-[(2S)-2-{3-[3-(4-{4-amino-3-[4-(difluoromethanesulfonamido)-3-[(1S)-1-(4-fluorophenyl)ethoxy]phenyl]-1-methyl-1H-pyrazolo[4,3-c]pyridin-7-yl}-1H-pyrazol-1-yl)pyrrolidin-1-yl]propanamido}-3,3-dimethylbutanoyl]-4-hydroxy-N-{[4-(4-methyl-1,3-thiazol-5-yl)phenyl]methyl}pyrrolidine-2-carboxamide], the IC50 with U937 cells is over 10 µM; in experiment [1], 1 to 10 µM. For the same compound, the DC50 at endogenous MLKL in U937 lay within 1 to 10 µM. Moreover, on human MLKL (full length), the Kd is under 0.01 µM.

For the compound `Cc1ncsc1-c1ccc(CNC(=O)[C@@H]2C[C@@H](O)CN2C(=O)[C@@H](NC(=O)COCCOCCOCCn2cc(-c3cnc(N)c4c(-c5ccc(NS(=O)(=O)C(F)F)c(O[C@@H](C)c6ccc(F)cc6)c5)nn(C)c34)cn2)C(C)(C)C)cc1` [Compound 1009, (2S,4R)-1-[(2S)-2-[2-(2-{2-[2-(4-{4-amino-3-[4-(difluoromethanesulfonamido)-3-[(1S)-1-(4-fluorophenyl)ethoxy]phenyl]-1-methyl-1H-pyrazolo[4,3-c]pyridin-7-yl}-1H-pyrazol-1-yl)ethoxy]ethoxy}ethoxy)acetamido]-3,3-dimethylbutanoyl]-4-hydroxy-N-{[4-(4-methyl-1,3-thiazol-5-yl)phenyl]methyl}pyrrolidine-2-carboxamide], the IC50 in the experiment on U937 cells was 1 to 10 µM; in experiment [1], under 1 µM. Further, on endogenous MLKL in U937, the 50% degradation concentration (DC50) fell in the range of 1 to 10 µM. Further, the Kd on human MLKL (full length) is under 0.01 µM.
